Article PMC8119466, “A screen of FDA-approved drugs identifies inhibitors of protein tyrosine phosphatase 4A3 (PTP4A3 or PRL-3)” (Scientific Reports, 2021)
Where a name gives a salt, the structure may show the parent alone. Read-outs that look alike come from different tables or passages of the source.

How the values were obtained:
Type in all cases: biochemical
recombinant PRL-3 = molecular target: T1, recombinant PRL-3 (Homo sapiens, UniProt O75365); test: In vitro phosphatase assay (DiFMUP hydrolysis), PRL-3; note: test concentration or dose not given here
T1 construct: 6xHis (N, cleaved yes); made in house; host or cells: E. coli One Shot BL21 Star

recombinant PRL-1 = molecular target: T2, recombinant PRL-1 (Homo sapiens, UniProt Q93096); test: In vitro phosphatase assay (DiFMUP hydrolysis), PRL-1; note: test concentration or dose not given here
T2 construct: 6xHis (N, cleaved yes); made in house; host or cells: E. coli One Shot BL21 Star
T2 sequence (Q93096 1-173): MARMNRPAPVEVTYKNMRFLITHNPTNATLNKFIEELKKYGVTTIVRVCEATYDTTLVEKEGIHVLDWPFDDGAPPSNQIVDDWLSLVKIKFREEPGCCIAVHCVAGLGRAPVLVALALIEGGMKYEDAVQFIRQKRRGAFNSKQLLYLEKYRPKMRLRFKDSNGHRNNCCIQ

recombinant PRL-2 = molecular target: T3, recombinant PRL-2 (Homo sapiens, UniProt Q12974); test: In vitro phosphatase assay (DiFMUP hydrolysis), PRL-2;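 note: PRL-2 activity read as DiFMUP hydrolysis after 20 min at room temperature with drug, enzyme first pre-reduced at 4 °C for 20 min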
T3 construct: 6xHis (N, cleaved yes); made in house; host or cells: E. coli One Shot BL21 Star
T3 sequence (Q12974 1-167): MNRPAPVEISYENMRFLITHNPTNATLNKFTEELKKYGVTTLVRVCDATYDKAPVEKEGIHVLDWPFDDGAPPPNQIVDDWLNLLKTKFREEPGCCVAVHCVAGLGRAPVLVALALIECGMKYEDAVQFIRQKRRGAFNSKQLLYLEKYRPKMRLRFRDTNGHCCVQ

[1] = FDA-approved drug screen, compared to DMSO
[2] = FDA-approved drug screen, activity compared to DMSO

T1 sequence (O75365 whole entry): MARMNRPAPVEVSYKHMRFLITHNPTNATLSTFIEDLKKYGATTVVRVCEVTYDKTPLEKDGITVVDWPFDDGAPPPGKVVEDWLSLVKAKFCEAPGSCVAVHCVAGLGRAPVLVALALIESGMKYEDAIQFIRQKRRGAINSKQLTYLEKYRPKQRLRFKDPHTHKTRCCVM

## COc1cc(Nc2c(C#N)cnc3cc(OCCCN4CCN(C)CC4)c(OC)cc23)c(Cl)cc1Cl [Bosutinib (SKI-606)]
Recombinant PRL-3; [1]
  % Phosphatase Activity (compared to DMSO) PRL-3: 82%
Recombinant PRL-1; [1]
  % Phosphatase Activity (compared to DMSO) PRL-1: 94%

## CN/C(=N/CCSCc1nc[nH]c1C)NC#N [Cimetidine]
Recombinant PRL-3
  % Phosphatase Activity (compared to DMSO) PRL-3: 112%
Recombinant PRL-1
  % Phosphatase Activity (compared to DMSO) PRL-1: 96%

## Nc1nc2[nH]cc(CCc3ccc(C(=O)N[C@@H](CCC(=O)[O-])C(=O)[O-])cc3)c2c(=O)[nH]1.Nc1nc2[nH]cc(CCc3ccc(C(=O)N[C@@H](CCC(=O)[O-])C(=O)[O-])cc3)c2c(=O)[nH]1.O.O.O.O.O.[Na+].[Na+].[Na+].[Na+] [Pemetrexed Disodium Hydrate]
Recombinant PRL-2; [1]
  % Phosphatase Activity (compared to DMSO) PRL-2: 101%
Recombinant PRL-3; [1]
  % Phosphatase Activity (compared to DMSO) PRL-3: 108%

## CC1(C)S[C@@H]2[C@H](NC(=O)Cc3ccccc3)C(=O)N2[C@H]1C(=O)O [Penicillin G Sodium]
Recombinant PRL-2; [1]
  % Phosphatase Activity (compared to DMSO) PRL-2: 105%
Recombinant PRL-3; [1]
  % Phosphatase Activity (compared to DMSO) PRL-3: 75%

## CCOc1ccc(NC(C)=O)cc1 [Phenacetin]
Recombinant PRL-2; [1]
  % Phosphatase Activity (compared to DMSO) PRL-2: 114%
Recombinant PRL-3; [1]
  % Phosphatase Activity (compared to DMSO) PRL-3: 81%

## O=C1NC(=O)C(c2ccccc2)(c2ccccc2)N1 [Phenytoin]
Recombinant PRL-3; [1]
  % Phosphatase Activity (compared to DMSO) PRL-3: 84%
Recombinant PRL-1; [1]
  % Phosphatase Activity (compared to DMSO) PRL-1: 104%

## CC(C)N(CCNC(=O)CN1CCCC1=O)C(C)C [Pramiracetam]
Recombinant PRL-2; [1]
  % Phosphatase Activity (compared to DMSO) PRL-2: 88%
Recombinant PRL-3; [1]
  % Phosphatase Activity (compared to DMSO) PRL-3: 88%

## CCc1nc(N)nc(N)c1-c1ccc(Cl)cc1 [Pyrimethamine]
Recombinant PRL-2; [1]
  % Phosphatase Activity (compared to DMSO) PRL-2: 109%
Recombinant PRL-3; [1]
  % Phosphatase Activity (compared to DMSO) PRL-3: 89%

## CN1[C@@H]2C[C@@H](OC(=O)[C@H](CO)c3ccccc3)C[C@H]1[C@@H]1O[C@@H]12 [Scopolamine HBr]
Recombinant PRL-3; [1]
  % Phosphatase Activity (compared to DMSO) PRL-3: 77%
Recombinant PRL-1; [1]
  % Phosphatase Activity (compared to DMSO) PRL-1: 91%

## Nc1ccc(S(=O)(=O)Nc2ncccn2)cc1 [Sulfadiazine]
Recombinant PRL-3
  % Phosphatase Activity (compared to DMSO) PRL-3: 103%
Recombinant PRL-1
  % Phosphatase Activity (compared to DMSO) PRL-1: 105%

## Cc1ccnc(NS(=O)(=O)c2ccc(N)cc2)n1 [Sulfamerazine]
Recombinant PRL-2; [2]
  % Phosphatase Activity (compared to DMSO) PRL-2: 108%
Recombinant PRL-3; [2]
  % Phosphatase Activity (compared to DMSO) PRL-3: 83%

## Nc1ccc(S(N)(=O)=O)cc1 [Sulfanilamide]
Recombinant PRL-2; [2]
  % Phosphatase Activity (compared to DMSO) PRL-2: 92%
Recombinant PRL-3; [2]
  % Phosphatase Activity (compared to DMSO) PRL-3: 77%

## Nc1c2c(nc3ccccc13)CCCC2 [Tacrine HCl]
Recombinant PRL-2
  % Phosphatase Activity (compared to DMSO) PRL-2: 89%
Recombinant PRL-3
  % Phosphatase Activity (compared to DMSO) PRL-3: 89%

## CC/C(=C(\c1ccccc1)c1ccc(OCCN(C)C)cc1)c1ccccc1 [Tamoxifen]
Recombinant PRL-2; [2]
  % Phosphatase Activity (compared to DMSO) PRL-2: 110%
Recombinant PRL-3; [2]
  % Phosphatase Activity (compared to DMSO) PRL-3: 81%

## CN1CCC(COc2cnc(-c3cccc(Cn4nc(-c5cccc(C#N)c5)ccc4=O)c3)nc2)CC1 [Tepotinib (EMD 1214063)]
Recombinant PRL-2; [2]
  % Phosphatase Activity (compared to DMSO) PRL-2: 110%
Recombinant PRL-3; [2]
  % Phosphatase Activity (compared to DMSO) PRL-3: 113%

## CN(C/C=C/C#CC(C)(C)C)Cc1cccc2ccccc12 [Terbinafine]
Recombinant PRL-2; [2]
  % Phosphatase Activity (compared to DMSO) PRL-2: 122%
Recombinant PRL-3; [2]
  % Phosphatase Activity (compared to DMSO) PRL-3: 84%

## CN1CCN(CCCN2c3ccccc3Sc3ccc(C(F)(F)F)cc32)CC1.Cl.Cl [Trifluoperazine 2HCl]
Recombinant PRL-3; [2]
  % Phosphatase Activity (compared to DMSO) PRL-3: 100%
Recombinant PRL-1; [2]
  % Phosphatase Activity (compared to DMSO) PRL-1: 103%

## COc1cc(Cc2cnc(N)nc2N)cc(OC)c1OC [Trimethoprim]
Recombinant PRL-2
  % Phosphatase Activity (compared to DMSO) PRL-2: 107%
Recombinant PRL-3
  % Phosphatase Activity (compared to DMSO) PRL-3: 79%

## CN1[C@@H]2CC[C@H]1C[C@@H](OC(=O)c1c[nH]c3ccccc13)C2 [Tropisetron]
Recombinant PRL-2; [2]
  % Phosphatase Activity (compared to DMSO) PRL-2: 100%
Recombinant PRL-3; [2]
  % Phosphatase Activity (compared to DMSO) PRL-3: 93%

## C[C@@H](c1ncncc1F)[C@](O)(Cn1cncn1)c1ccc(F)cc1F [Voriconazole]
Recombinant PRL-2; [2]
  % Phosphatase Activity (compared to DMSO) PRL-2: 92%
Recombinant PRL-3; [2]
  % Phosphatase Activity (compared to DMSO) PRL-3: 86%

## OC[C@@H](O)[C@H](O)[C@@H](O)CO [Xylitol]
Recombinant PRL-2; [2]
  % Phosphatase Activity (compared to DMSO) PRL-2: 99%
Recombinant PRL-3; [2]
  % Phosphatase Activity (compared to DMSO) PRL-3: 96%

## Bleomycin Sulfate
Recombinant PRL-2; [1]
  % Phosphatase Activity (compared to DMSO) PRL-2: 100%
Recombinant PRL-3; [1]
  % Phosphatase Activity (compared to DMSO) PRL-3: 64%

## L-Adrenaline
Recombinant PRL-2
  % Phosphatase Activity (compared to DMSO) PRL-2: 98%
Recombinant PRL-3
  % Phosphatase Activity (compared to DMSO) PRL-3: 71%
